Data published in PMC6694155, “PTPσ inhibitors promote hematopoietic stem cell regeneration” (Nature Communications, 2019).
Values joined by “and” are separate entries in the source; they are usually repeats but may differ in a detail not shown here. Equal entries are not always repeated. “Also recorded” adds a separate entry of the source.

What was measured:
[1] = target: T1, PTPMEG1 (Megakaryocyte Protein-Tyrosine Phosphatase 1) (Homo sapiens, UniProt P29074); assay: PhosphataseProfiler screen: PTPMEG1; format: biochemical; settings: replicates
T1 construct: purchased Eurofins Pharma Discovery Services UK
Description: Compound DJ001 was evaluated in a PhosphataseProfiler™ screen at 10 μM and 1 μM (2.7 μg/mL and 0.27 μg/mL) concentrations at Eurofins Pharma Discovery Services UK (Study number UK022-0004033) against a panel of 21 Phosphatases. In each experiment, the respective reference antagonist/agonist was tested directly with DJ001 and the data were compared with historical values determined at Eurofins. DJ001 compound inhibition was calculated as percentage inhibition of the enzymatic activity compared with control.

[2] = test system: adult C57BL/6 mice; assay: 30 day systemic treatment of non-irradiated mice (blood counts, BM HSC/progenitors, CFCs); format: in vivo, mouse
Description: Femurs and tibiae were collected from killed C57BL/6 or Ptprs^−/− mice and flushed with IMDM containing 10% FBS and 1% penicillin–streptomycin for BM cells. PB was collected through sub-mandibular puncture. Cells were filtered through a 40 μM strainer and then treated with ACK lysis buffer (Sigma Aldrich) before antibody staining for flow cytometry. For KSL and CD150^+CD48^−KSL cell analysis, BM cells were stained with allophycocyanin (APC)-and Cy7-conjugated anti-mouse Sca1 (BD Biosciences, #560654, 1:100), phycoerythrin (PE)-conjugated anti-mouse c-kit (BD Biosciences, #553355, 1:100), V450 lineage cocktail (BD Biosciences, 561301, 1:10), Alexa Fluor 488-conjugated anti-mouse CD48 (BioLegend, #103414, 1:100), and Alexa Fluor 647-conjugated anti-mouse CD150 (Biolegend, #115918, 1:100) antibodies. For MEP, CMP, GMP, and CLP cell analysis, BM cells were stained with APC-Cy7-conjugated anti-mouse Sca1 (BD Biosciences, #560654, 1:100), PE-conjugated anti-mouse ckit (BD Biosciences, #553355, 1:100), V450 lineage cocktail (BD Biosciences, #561301; 1:10), Alexa Fluor 488-conjugated anti-mouse CD127 (BD Biosciences, #561533, 1:100), Alexa Fluor 647-conjugated anti-mouse CD34 (BD Biosciences, #560230; 1:100), and BV605-conjugated anti-mouse CD16/32 antibodies (BD Biosciences, #563006; 1:100). For donor engraftment analysis in transplanted mice, PB or BM cells were stained with BV605-conjugated anti-mouse CD45.2 (BioLegend, #109841, 1:100), fluorescein isothiocyanate (FITC)-conjugated anti-mouse CD45.1 (BD Biosciences, #553775, 1:100), PE-conjugated anti-mouse Mac-1 (BD Biosciences, #557397, 1:100) and anti-mouse Gr1 (BD Biosciences, #553128, 1:100), V450-conjugated anti-mouse CD3 (BD Biosciences, #561389, 1:100), and APC-Cy7-conjugated anti-mouse B220 (BD Biosciences, 552094, 1:100) antibodies.
CFC assays (colony-forming unit-granulocyte monocyte), burst-forming unit-erythroid, and CFU-GEMM were performed using MethoCult GF M3434 (Stemcell Technologies)[6]. For all in vitro assays, BM CD34^−KSL cells, KSL cells, and Lin^− cells were cultured in TSF media (IMDM, 10% FBS, 1% pen-strep, 20 ng/mL recombinant mouse TPO, 125 ng/mL recombinant mouse SCF, 50 ng/mL recombinant mouse Flt3 ligand). Recombinant mouse SCF, Flt3 ligand, and TPO were purchased from R&D Systems. For competitive repopulation assays, BM cells were isolated from donor 10–12-week-old female CD45.2^+ mice. Recipient 10-week-old female CD45.1^+ B6.SJL mice were irradiated with 950 cGy TBI using a Cs137 irradiator and donor BM cells were administered via tail vein injection along with a competing dose of 1 × 10^5 non-irradiated host BM cells. Multilineage donor hematopoietic cell engraftment was measured in the PB by flow cytometry.

[3] = test system: BM KSL cells; assay: Cell cycle analysis (Ki67/7AAD) of BM KSL cells; format: cell-based, mouse; design: G0 / G1 / G2SM: unit not given here
Description: Eight- to ten-week-old female C57BL/6 mice were irradiated with 500 cGy TBI followed by subcutaneous injections of 5 mg/kg DJ001 or vehicle, or 5 mg/kg DJ001 plus 40 mg/kg EHT1864. Twenty four hours after irradiation, mice were killed to collect BM cells for Annexin V apoptosis analysis. BM cells were stained with APC-Cy7-conjugated anti-mouse Sca1 (BD Biosciences, #560654, 1:100), PE-conjugated anti-ckit (BD Biosciences, #553355, 1:100), and V450 lineage cocktail (BD Biosciences, #561301, 1:10) antibodies for 30 min at 4 °C. Cells were then resuspended in 1× Annexin V binding buffer and then stained with FITC-conjugated anti-Annexin V antibody (BD Biosciences, #556547,1:50) and 7AAD antibody (BD Biosciences, #559925, 1:40)[68]. For in vitro human BM cell apoptosis assays, isolated human BM CD34^+ cells were plated into 96-well plates and then irradiated with 300 cGy. Immediately after irradiation, cells were treated with 5 μg/mL DJ001 or vehicle for 24 h and then collected for Annexin V cell apoptosis analysis. For cell cycle analysis, BM KSL cells were irradiated at 300 cGy and then treated with 1 μg/mL DJ001 or vehicle for 36 h. Subsequently, cells were resuspended in 200 μL of PBS, fixed with 1 mL of ice-cold fixation solution (0.25% Saponin, 2.5% PFA, 2% fetal calf serum (FCS) in PBS), and incubated for 30 min on ice. Cells were washed in Saponin buffer (0.25% Saponin, 2% FCS in PBS) and resuspended in 200 μL of Saponin buffer containing 20 μL of FITC-conjugated anti-Ki67 antibody (BD Biosciences, #556026, 1:10) and 1 μL of RNase (Qiagen, #19101, 100 mg/mL). After 30 min of incubation, cells were washed in Saponin buffer and resuspended for flow analysis in 200 μL of Saponin buffer containing 5 μL 7AAD (BD Biosciences, #559925, 1:40).

[4] = test system: BM cells from irradiated CD45.2+ mice in CD45.1+ recipient mice; assay: HSC competitive repopulation assay; format: in vivo, mouse
Description: Femurs and tibiae were collected from killed C57BL/6 or Ptprs^−/− mice and flushed with IMDM containing 10% FBS and 1% penicillin–streptomycin for BM cells. PB was collected through sub-mandibular puncture. Cells were filtered through a 40 μM strainer and then treated with ACK lysis buffer (Sigma Aldrich) before antibody staining for flow cytometry. For KSL and CD150^+CD48^−KSL cell analysis, BM cells were stained with allophycocyanin (APC)-and Cy7-conjugated anti-mouse Sca1 (BD Biosciences, #560654, 1:100), phycoerythrin (PE)-conjugated anti-mouse c-kit (BD Biosciences, #553355, 1:100), V450 lineage cocktail (BD Biosciences, 561301, 1:10), Alexa Fluor 488-conjugated anti-mouse CD48 (BioLegend, #103414, 1:100), and Alexa Fluor 647-conjugated anti-mouse CD150 (Biolegend, #115918, 1:100) antibodies. […]
CFC assays (colony-forming unit-granulocyte monocyte), burst-forming unit-erythroid, and CFU-GEMM were performed using MethoCult GF M3434 (Stemcell Technologies)[6]. […] Multilineage donor hematopoietic cell engraftment was measured in the PB by flow cytometry.

[5] = 30 day treatment of non-irradiated mice, individual mice
[6] = 30 day treatment of non-irradiated mice, replicates
[7] = 36 h following 300 cGy, 1 μg/mL DJ001
[8] = 36 h following 300 cGy, 1 µg/mL DJ001, 6 µg/mL EHT1864, 240 ng/mL SU9516
[9] = cell cycle phase, Supplementary Figure 7h

T1 sequence (P29074 whole entry): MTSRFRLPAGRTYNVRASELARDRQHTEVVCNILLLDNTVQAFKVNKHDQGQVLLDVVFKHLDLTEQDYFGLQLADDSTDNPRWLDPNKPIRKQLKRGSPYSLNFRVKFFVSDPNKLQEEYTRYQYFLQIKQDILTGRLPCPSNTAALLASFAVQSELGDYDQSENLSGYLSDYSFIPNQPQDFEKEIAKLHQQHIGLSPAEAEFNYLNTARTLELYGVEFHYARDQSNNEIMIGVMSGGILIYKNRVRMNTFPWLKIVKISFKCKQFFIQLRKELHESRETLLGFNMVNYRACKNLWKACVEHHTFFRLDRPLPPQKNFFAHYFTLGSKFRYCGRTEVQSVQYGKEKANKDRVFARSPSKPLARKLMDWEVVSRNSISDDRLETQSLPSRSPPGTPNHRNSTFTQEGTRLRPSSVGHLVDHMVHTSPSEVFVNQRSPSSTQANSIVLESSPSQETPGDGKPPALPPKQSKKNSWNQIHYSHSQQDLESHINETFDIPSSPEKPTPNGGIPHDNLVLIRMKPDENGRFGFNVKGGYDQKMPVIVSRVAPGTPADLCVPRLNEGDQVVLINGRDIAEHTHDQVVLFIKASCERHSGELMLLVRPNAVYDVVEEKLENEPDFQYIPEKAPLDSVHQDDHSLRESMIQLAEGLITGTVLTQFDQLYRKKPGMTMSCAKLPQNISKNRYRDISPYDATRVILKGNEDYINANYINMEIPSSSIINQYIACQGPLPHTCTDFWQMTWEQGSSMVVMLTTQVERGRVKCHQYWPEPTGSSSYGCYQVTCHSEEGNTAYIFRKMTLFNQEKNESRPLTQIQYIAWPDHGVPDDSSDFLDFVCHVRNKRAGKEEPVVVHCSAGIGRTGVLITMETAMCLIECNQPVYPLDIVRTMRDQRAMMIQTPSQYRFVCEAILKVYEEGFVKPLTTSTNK

Structure (SMILES): O=C(/C=C\Nc1cccc([N+](=O)[O-])c1)c1ccccc1 [DJ001, (Z)-3-((3-nitrophenyl)amino)-1-phenylprop-2-en-1-one]
- Supplementary Figure 1: PTP MEG1 activity ([1]; 2.7 μg/mL DJ001): 100 and 92 and 105
- Supplementary Figure 1: PTP MEG1 activity ([1]; 0.27 g/mL DJ001): 103 and 114 and 105
- Supplementary Figure 3c (center left panel): blood counts [2, 5]: 0.82 and 1.16 and 1.29 and 0.87 and 1.1 and 1.4 and 0.98
- Supplementary Figure 3c (center right panel): blood counts [2, 5]: 4.18 and 4.99 and 3.87 and 3.78 and 3.15 and 4.96 and 3.86
- Supplementary Figure 3c (left panel): blood counts [2, 5]: 5.14 and 6.28 and 5.54 and 5.44 and 4.5 and 5.46 and 7.08
- Supplementary Figure 3c (right panel): blood counts [2, 5]: 982 and 1048 and 1026 and 1004 and 1184 and 1209 and 1110
- Supplementary Figure 3d (center panel): BM HSC/progenitors [2, 5]: 3.5181 and 6.1488 and 9.9568 and 8.316 and 4.0147 and 7.046 and 6.2794
- Supplementary Figure 3d (left panel): BM HSC/progenitors [2, 5]: 1.912 and 2.52 and 3.92 and 3.024 and 2.624 and 2.168 and 3.376
- Supplementary Figure 3d (right panel): BM HSC/progenitors [2, 5]: 3.375 and 1.086 and 2.798 and 5.06 and 3.054 and 1.789 and 4.039
- Supplementary Figure 3e: BFU-E [2, 6]: 0
- Supplementary Figure 3e: CFU-GEMM [2, 6]: 0 (3×) and 1 (2×) and 2
- Supplementary Figure 3e: CFU-GM [2, 6]: 10 and 7 and 8 and 6 (2×) and 9
- complete blood counts, BM HSC or progenitor cell content, BM CFCs vs vehicle ([2]; non-irradiated mice, 5 mg/kg subcutaneously every other day for 30 days, 5 mg/kg): no significant changes; also recorded: caused no expansion of HSCs, progenitors, or mature blood counts
- percentage of KSL cells in G2/S/M phase vs control ([3]; 36 h following 300 cGy): significantly increased the percentage of KSL cells in G2/S/M phase
- percentages of KSL cells in G0, per replicate (Figure 4a) [3, 7]: 10.898% and 7.091% and 6.413% and 9.19% and 8.538% and 7.981% and 5.757%
- percentages of KSL cells in G1, per replicate (Figure 4a) [3, 7]: 51.766% and 62.582% and 57.686% and 51.047% and 60.936% and 51.069% and 57.668%
- percentages of KSL cells in G2SM, per replicate (Figure 4a) [3, 7]: 36.781% and 29.964% and 35.471% and 38.731% and 30% and 39.75% and 36.236%
- percentages of BM cells in G0, per replicate (Figure 4d bottom left panel) [3, 8]: 12% and 10% and 8% and 4% and 11%
- percentages of BM cells in G1, per replicate (Figure 4d bottom center panel) [3, 8]: 52% and 54% and 51% and 48%
- percentages of BM cells in G2/S/M, per replicate (Figure 4d bottom right panel) [3, 8]: 35% and 40% and 41% and 39%
- G0 [3, 9]: 17.593 and 13.329 and 15.794 and 18.75 and 23.139 and 16.263 and 18.5
- G1 [3, 9]: 51.409 and 55.557 and 49.648 and 46.611 and 42.434 and 51.122 and 52.817
- G2SM [3, 9]: 27.738 and 29.087 and 32.369 and 30.422 and 28.183 and 29.707 and 25.745
- percentages of donor myeloid cells, B cells and T cells in PB vs control ([4]; 20 weeks post transplant): significantly increased percentages
- donor hematopoietic reconstitution over time compared with controls ([4]; donors: 750 cGy, 5 mg/kg DJ001 daily, BM at day +10): significantly increased donor hematopoietic reconstitution
